Measurements as given in publication PMC8800111 (The Journal of Biological Chemistry, 2021).

Legend:
Format in all cases: cell-based
[1] = molecular target: proteins of U3A human fibrosarcoma cells (4462 proteins detected) (Homo sapiens, UniProt Q96EQ0); details: protein SGTB, U3A cells
[2] = molecular target: proteins of U3A human fibrosarcoma cells (4462 proteins detected) (Homo sapiens, UniProt P30050); details: protein RPL12; soluble abundance after heat, U3A cells
[3] = molecular target: proteins of U3A human fibrosarcoma cells (4462 proteins detected) (Homo sapiens, UniProt Q9BXY0); details: protein MAK16; soluble abundance after heat, U3A cells
[4] = molecular target: proteins of U3A human fibrosarcoma cells (4462 proteins detected) (Homo sapiens, UniProt Q8N163); details: protein CCAR2; U3A cells
[5] = molecular target: proteins of U3A human fibrosarcoma cells (4462 proteins detected) (Homo sapiens, UniProt Q09161); details: protein NCBP1; soluble abundance after heat, U3A cells
[6] = molecular target: proteins of U3A human fibrosarcoma cells (4462 proteins detected) (Homo sapiens, UniProt P35249); details: protein RFC4; U3A, 10 μM, 2 h
[7] = molecular target: proteins of U3A human fibrosarcoma cells (4462 proteins detected) (Homo sapiens, UniProt Q9NS69); details: protein TOMM22; soluble abundance after heat, U3A cells
[8] = molecular target: proteins of U3A human fibrosarcoma cells (4462 proteins detected) (Homo sapiens, UniProt Q6SJ93); details: protein FAM111B; U3A cells
[9] = molecular target: proteins of U3A human fibrosarcoma cells (4462 proteins detected) (Homo sapiens, UniProt Q6ZQQ6); details: protein WDR87; U3A, 10 μM, 2 h
[10] = molecular target: proteins of U3A human fibrosarcoma cells (4462 proteins detected) (Homo sapiens, UniProt P82933); details: protein MRPS9; soluble abundance after heat, U3A cells
[11] = molecular target: proteins of U3A human fibrosarcoma cells (4462 proteins detected) (Homo sapiens, UniProt O14737); details: protein PDCD5, U3A cells
[12] = molecular target: proteins of U3A human fibrosarcoma cells (4462 proteins detected) (Homo sapiens, UniProt Q9H7X7); details: protein IFT22; U3A, 10 μM, 2 h
[13] = molecular target: proteins of U3A human fibrosarcoma cells (4462 proteins detected) (Homo sapiens, UniProt P40227); details: protein CCT6A; U3A cells
[14] = molecular target: proteins of U3A human fibrosarcoma cells (4462 proteins detected) (Homo sapiens, UniProt Q9HC36); details: protein RNMTL1; U3A cells
[15] = molecular target: proteins of U3A human fibrosarcoma cells (4462 proteins detected) (Homo sapiens, UniProt Q9H3N1); details: protein TMX1; U3A cells
[16] = molecular target: proteins of U3A human fibrosarcoma cells (4462 proteins detected) (Homo sapiens, UniProt P04183); details: protein TK1; U3A cells
[17] = molecular target: proteins of U3A human fibrosarcoma cells (4462 proteins detected) (Homo sapiens, UniProt Q96CB9); details: protein NSUN4; U3A cells
[18] = molecular target: proteins of U3A human fibrosarcoma cells (4462 proteins detected) (Homo sapiens, UniProt Q9NP64); details: protein ZCCHC17; soluble abundance after heat, U3A cells
[19] = molecular target: proteins of U3A human fibrosarcoma cells (4462 proteins detected) (Homo sapiens, UniProt P51114); details: protein FXR1; U3A cells
[20] = molecular target: proteins of U3A human fibrosarcoma cells (4462 proteins detected) (Homo sapiens, UniProt Q9H944); details: protein MED20; U3A cells
[21] = molecular target: proteins of U3A human fibrosarcoma cells (4462 proteins detected) (Homo sapiens, UniProt P14866); details: protein HNRNPL; soluble abundance after heat, U3A cells
[22] = molecular target: proteins of U3A human fibrosarcoma cells (4462 proteins detected) (Homo sapiens, UniProt O60291); details: protein MGRN1; U3A, 10 μM, 2 h
[23] = molecular target: proteins of U3A human fibrosarcoma cells (4462 proteins detected) (Homo sapiens, UniProt Q14161); details: protein GIT2; soluble abundance after heat, U3A cells
[24] = molecular target: proteins of U3A human fibrosarcoma cells (4462 proteins detected) (Homo sapiens, UniProt Q9NRY5); details: protein FAM114A2; U3A cells
[25] = molecular target: proteins of U3A human fibrosarcoma cells (4462 proteins detected) (Homo sapiens, UniProt Q16610); details: protein ECM1; U3A, 10 μM, 2 h
[26] = molecular target: proteins of U3A human fibrosarcoma cells (4462 proteins detected) (Homo sapiens, UniProt Q32P44); details: protein EML3, U3A cells
[27] = molecular target: proteins of U3A human fibrosarcoma cells (4462 proteins detected) (Homo sapiens, UniProt P78316); details: protein NOP14; U3A cells
[28] = molecular target: proteins of U3A human fibrosarcoma cells (4462 proteins detected) (Homo sapiens, UniProt O60563); details: protein CCNT1; U3A cells
[29] = molecular target: proteins of U3A human fibrosarcoma cells (4462 proteins detected) (Homo sapiens, UniProt P62857); details: protein RPS28, U3A cells

proteins of U3A human fibrosarcoma cells (4462 proteins detected) (Homo sapiens, UniProt P04183), sequence (P04183 whole entry): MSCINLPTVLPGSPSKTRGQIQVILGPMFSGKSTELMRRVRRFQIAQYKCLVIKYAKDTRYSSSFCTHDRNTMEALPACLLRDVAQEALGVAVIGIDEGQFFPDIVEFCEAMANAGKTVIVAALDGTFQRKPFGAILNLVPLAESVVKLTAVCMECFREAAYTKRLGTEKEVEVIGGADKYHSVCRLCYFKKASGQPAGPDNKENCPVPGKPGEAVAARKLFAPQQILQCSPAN
proteins of U3A human fibrosarcoma cells (4462 proteins detected) (Homo sapiens, UniProt Q9HC36), sequence (Q9HC36 41-420): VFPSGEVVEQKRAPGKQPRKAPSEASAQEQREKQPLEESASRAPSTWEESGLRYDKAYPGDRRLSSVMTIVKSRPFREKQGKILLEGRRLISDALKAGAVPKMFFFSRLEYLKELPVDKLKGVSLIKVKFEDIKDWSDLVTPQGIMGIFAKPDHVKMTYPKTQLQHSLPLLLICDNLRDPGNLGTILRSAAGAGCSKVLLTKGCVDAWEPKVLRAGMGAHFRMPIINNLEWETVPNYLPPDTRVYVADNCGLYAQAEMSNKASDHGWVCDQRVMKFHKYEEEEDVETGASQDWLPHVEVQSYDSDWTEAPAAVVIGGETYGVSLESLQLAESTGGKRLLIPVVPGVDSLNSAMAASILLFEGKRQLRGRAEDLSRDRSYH
proteins of U3A human fibrosarcoma cells (4462 proteins detected) (Homo sapiens, UniProt Q16610), sequence (Q16610 20-540): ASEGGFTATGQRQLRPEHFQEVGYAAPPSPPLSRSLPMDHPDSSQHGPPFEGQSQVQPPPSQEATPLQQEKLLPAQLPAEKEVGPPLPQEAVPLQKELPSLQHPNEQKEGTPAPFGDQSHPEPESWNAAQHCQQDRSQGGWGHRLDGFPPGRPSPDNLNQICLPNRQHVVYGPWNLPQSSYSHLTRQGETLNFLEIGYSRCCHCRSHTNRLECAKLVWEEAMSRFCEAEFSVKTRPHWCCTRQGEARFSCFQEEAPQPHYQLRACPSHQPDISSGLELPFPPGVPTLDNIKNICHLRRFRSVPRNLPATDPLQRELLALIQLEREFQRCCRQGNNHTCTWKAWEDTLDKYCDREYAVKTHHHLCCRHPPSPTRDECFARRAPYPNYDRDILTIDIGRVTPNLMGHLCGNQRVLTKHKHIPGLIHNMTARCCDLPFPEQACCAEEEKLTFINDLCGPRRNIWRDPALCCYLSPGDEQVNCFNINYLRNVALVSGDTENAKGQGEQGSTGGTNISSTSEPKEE
proteins of U3A human fibrosarcoma cells (4462 proteins detected) (Homo sapiens, UniProt Q96CB9), sequence (Q96CB9 26-384): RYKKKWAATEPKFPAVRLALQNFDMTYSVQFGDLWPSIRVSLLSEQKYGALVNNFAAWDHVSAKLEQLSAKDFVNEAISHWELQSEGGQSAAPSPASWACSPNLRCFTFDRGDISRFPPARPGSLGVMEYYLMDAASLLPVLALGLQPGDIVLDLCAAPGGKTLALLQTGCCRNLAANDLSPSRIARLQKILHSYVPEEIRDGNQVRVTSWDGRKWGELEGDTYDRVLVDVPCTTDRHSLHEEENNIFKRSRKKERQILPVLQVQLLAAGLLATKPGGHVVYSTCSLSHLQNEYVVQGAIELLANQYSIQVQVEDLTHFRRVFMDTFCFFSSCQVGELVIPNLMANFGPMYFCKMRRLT
proteins of U3A human fibrosarcoma cells (4462 proteins detected) (Homo sapiens, UniProt O60563), sequence (O60563 whole entry): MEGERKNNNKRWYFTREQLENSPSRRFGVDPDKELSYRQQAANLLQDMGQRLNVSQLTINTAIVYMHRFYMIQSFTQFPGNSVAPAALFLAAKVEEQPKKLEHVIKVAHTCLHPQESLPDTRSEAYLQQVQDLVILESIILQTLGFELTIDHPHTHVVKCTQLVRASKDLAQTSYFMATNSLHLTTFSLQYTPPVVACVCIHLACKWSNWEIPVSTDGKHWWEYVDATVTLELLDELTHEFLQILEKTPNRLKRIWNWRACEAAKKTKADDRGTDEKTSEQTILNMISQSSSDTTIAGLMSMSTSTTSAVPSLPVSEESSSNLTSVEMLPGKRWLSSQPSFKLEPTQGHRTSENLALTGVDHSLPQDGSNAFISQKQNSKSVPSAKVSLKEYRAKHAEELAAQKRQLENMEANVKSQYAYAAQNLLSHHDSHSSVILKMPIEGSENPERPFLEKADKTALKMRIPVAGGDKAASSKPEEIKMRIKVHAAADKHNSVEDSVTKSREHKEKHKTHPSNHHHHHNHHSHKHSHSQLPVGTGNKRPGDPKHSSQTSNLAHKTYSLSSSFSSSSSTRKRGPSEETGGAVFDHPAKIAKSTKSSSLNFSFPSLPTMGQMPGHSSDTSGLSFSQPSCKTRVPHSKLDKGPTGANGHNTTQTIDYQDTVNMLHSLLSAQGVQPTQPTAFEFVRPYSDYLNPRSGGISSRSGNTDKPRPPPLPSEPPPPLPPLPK
proteins of U3A human fibrosarcoma cells (4462 proteins detected) (Homo sapiens, UniProt O14737), sequence (O14737 whole entry): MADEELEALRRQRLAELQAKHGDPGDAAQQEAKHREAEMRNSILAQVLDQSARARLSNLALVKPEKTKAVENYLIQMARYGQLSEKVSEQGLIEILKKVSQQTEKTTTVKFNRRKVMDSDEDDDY
proteins of U3A human fibrosarcoma cells (4462 proteins detected) (Homo sapiens, UniProt Q9H7X7), sequence (Q9H7X7 whole entry): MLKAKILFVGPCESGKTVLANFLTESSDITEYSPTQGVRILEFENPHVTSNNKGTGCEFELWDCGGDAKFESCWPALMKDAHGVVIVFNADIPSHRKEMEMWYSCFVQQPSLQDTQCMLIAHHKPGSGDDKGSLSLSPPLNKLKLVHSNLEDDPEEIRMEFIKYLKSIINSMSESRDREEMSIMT
proteins of U3A human fibrosarcoma cells (4462 proteins detected) (Homo sapiens, UniProt Q8N163), sequence (Q8N163 whole entry): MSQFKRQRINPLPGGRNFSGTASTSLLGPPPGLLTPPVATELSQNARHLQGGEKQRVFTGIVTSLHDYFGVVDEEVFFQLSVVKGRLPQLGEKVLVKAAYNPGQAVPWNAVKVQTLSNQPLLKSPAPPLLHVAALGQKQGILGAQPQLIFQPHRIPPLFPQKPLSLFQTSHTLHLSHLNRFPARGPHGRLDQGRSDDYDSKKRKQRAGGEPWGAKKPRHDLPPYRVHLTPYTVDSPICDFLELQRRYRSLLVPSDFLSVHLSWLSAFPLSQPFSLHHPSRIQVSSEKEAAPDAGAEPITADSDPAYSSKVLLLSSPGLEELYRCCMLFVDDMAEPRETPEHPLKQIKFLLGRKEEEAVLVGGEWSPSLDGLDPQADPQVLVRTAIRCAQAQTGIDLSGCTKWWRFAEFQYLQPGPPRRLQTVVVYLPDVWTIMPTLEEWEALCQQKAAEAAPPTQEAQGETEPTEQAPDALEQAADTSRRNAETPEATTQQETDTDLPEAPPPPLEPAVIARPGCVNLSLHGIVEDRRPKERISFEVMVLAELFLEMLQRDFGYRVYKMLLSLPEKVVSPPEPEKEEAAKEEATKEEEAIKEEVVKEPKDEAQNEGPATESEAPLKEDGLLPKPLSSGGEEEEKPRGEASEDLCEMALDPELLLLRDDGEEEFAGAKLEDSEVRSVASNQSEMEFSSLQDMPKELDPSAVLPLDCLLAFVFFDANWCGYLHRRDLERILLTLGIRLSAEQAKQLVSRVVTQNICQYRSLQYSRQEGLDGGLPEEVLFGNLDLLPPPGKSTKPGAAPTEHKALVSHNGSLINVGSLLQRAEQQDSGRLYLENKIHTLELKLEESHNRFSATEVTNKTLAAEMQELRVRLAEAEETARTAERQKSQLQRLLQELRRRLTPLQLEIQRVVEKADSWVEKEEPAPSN
proteins of U3A human fibrosarcoma cells (4462 proteins detected) (Homo sapiens, UniProt P78316), sequence (P78316 whole entry): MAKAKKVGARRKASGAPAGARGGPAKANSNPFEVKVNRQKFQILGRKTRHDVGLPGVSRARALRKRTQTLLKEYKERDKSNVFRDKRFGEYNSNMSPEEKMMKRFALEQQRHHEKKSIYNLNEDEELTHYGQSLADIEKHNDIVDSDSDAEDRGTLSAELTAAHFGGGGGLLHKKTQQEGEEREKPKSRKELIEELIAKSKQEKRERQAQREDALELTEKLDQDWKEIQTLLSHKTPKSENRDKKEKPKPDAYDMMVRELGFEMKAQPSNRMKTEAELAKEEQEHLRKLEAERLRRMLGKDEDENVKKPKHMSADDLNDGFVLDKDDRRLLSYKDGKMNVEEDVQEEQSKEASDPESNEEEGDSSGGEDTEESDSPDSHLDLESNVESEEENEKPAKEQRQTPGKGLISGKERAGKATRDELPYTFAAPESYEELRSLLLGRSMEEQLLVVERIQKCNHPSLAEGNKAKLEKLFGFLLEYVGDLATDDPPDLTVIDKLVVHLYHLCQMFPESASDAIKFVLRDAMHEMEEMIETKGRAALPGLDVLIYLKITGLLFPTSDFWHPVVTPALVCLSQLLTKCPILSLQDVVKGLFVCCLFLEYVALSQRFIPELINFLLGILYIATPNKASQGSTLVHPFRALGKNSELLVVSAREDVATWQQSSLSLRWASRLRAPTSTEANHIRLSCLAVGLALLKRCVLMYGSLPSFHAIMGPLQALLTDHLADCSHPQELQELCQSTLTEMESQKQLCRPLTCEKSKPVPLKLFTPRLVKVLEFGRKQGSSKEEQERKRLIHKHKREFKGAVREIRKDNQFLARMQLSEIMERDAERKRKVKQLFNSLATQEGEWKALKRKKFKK
proteins of U3A human fibrosarcoma cells (4462 proteins detected) (Homo sapiens, UniProt O60291), sequence (O60291 whole entry): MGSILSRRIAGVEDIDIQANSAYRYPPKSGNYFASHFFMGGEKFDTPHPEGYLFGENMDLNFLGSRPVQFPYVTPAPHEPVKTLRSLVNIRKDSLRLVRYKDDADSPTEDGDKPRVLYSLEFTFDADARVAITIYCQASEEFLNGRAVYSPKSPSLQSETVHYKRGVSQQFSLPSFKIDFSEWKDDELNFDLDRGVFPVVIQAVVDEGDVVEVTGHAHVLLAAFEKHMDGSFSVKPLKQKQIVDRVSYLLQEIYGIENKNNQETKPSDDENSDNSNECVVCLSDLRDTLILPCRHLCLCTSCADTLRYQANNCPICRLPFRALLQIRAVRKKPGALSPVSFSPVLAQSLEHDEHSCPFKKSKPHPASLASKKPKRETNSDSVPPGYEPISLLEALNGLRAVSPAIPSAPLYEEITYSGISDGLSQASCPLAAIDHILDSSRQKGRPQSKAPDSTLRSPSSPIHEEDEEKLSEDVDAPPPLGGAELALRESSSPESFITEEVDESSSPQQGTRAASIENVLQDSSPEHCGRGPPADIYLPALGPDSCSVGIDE

Structure (SMILES): CCc1nc(N)nc(N)c1-c1ccc(Cl)cc1 [pyrimethamine]
- Log2 (PYR/DMSO) [1]: -0.04
- Log2 (PYR/DMSO) [2]: 0.14
- Log2 (PYR/DMSO) [3]: 0.14
- Log2 (PYR/DMSO) [4]: 0.18
- Log2 (PYR/DMSO) [5]: 0.14
- Log2 (PYR/DMSO), RFC4 [6]: 0.27
- Log2 (PYR/DMSO) [7]: 0.14
- Log2 (PYR/DMSO) [8]: 0.20
- Log2 (PYR/DMSO), WDR87 [9]: -0.16
- Log2 (PYR/DMSO) [10]: 0.15
- Log2 (PYR/DMSO) [11]: -0.04
- Log2 (PYR/DMSO), IFT22 [12]: -0.16
- Log2 (PYR/DMSO) [13]: 0.20
- Log2 (PYR/DMSO) [14]: 0.21
- Log2 (PYR/DMSO) [15]: 0.20
- Log2 (PYR/DMSO) [16]: 0.19
- Log2 (PYR/DMSO) [17]: 0.16
- Log2 (PYR/DMSO) [18]: 0.15
- Log2 (PYR/DMSO) [19]: 0.17
- Log2 (PYR/DMSO) [20]: 0.18
- Log2 (PYR/DMSO) [21]: 0.15
- Log2 (PYR/DMSO), MGRN1 [22]: -0.25
- Log2 (PYR/DMSO) [23]: 0.14
- Log2 (PYR/DMSO) [24]: 0.17
- Log2 (PYR/DMSO), ECM1 [25]: -0.14
- Log2 (PYR/DMSO) [26]: -0.05
- Log2 (PYR/DMSO) [27]: 0.15
- Log2 (PYR/DMSO) [28]: 0.18
- Log2 (PYR/DMSO) [29]: -0.05
